# According to PubChem BioAssay AID1845205 (Molecular Pharmacology Branch, DTP, NCI, 2023):
# Where “and” joins values, the source holds several entries; their conditions need not be identical. Identical values can stand only once.
# Tested on: MPNST multicellular tumor spheroids, viability % test/control
# Experiment: Anticancer human tumor MPNST cell line growth inhibition;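 also: spheroids exposed to agents for seven days after three days of growth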;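 as to viability, T/C: luminescence signal used as surrogate for viable cell amount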
# Details: for viability, T/C: stronger effect = lower value
# Text: Multicellular complex tumor spheroid response to DNA repair inhibitors in combination with DNA-damaging drugs
# This study explores the anticancer activities of DNA-damaging drugs and inhibitors of DNA damage repair, both as single agents and in combinations. Complex tumor spheroids comprised of malignant cells, endothelial cells and mesenchymal stem cells served as an in vitro model for human solid tumors. This model system incorporates physiologically relevant features and patient-derived or established malignant cell lines with clinically relevant genetic alterations from many tumor types. Twenty-six patient-derived or established malignant cell lines were evaluated representing sarcoma, melanoma, small cell lung cancer (SCLC), non-small cell lung cancer (NSCLC), as well as bladder, ovarian and pancreatic cancers. The concentration ranges selected for each drug and investigational agent were based upon clinically achievable concentrations if the clinical Cmax of the agent was known.
# Compounds. The drugs and compounds olaparib (NSC753686), talazoparib (NSC767125), berzosertib (NSC777718), elimusertib (NSC800525), nedisertib (NSC802822), VX-984 (NSC792969), AZD-1390 (NSC803789), temozolomide (NSC362856), topotecan (NSC609699), trabectedin (NSC813783), staurosporine (NSC755774), and gemcitabine (NSC613327) were obtained from the National Cancer Institute (NCI) Developmental Therapeutics Program Chemical Repository. The FDA-approved anticancer drug set is available from the Developmental Therapeutics Program at https://dtp.cancer.gov/organization/dscb/obtaining/available_plates.htm. […] The stock solutions were prepared in dimethyl sulfoxide (DMSO, Sigma-Aldrich, St. Louis, MO, cat. D2650) at 400-fold the tested concentration and stored at -70 degrees C. Prior to their use, the stock solutions were diluted in fresh medium and the final DMSO concentration in the assay was 0.25% (v/v). All drugs and investigational agents were tested over a range starting from a high concentration at or near the clinical Cmax and decreasing in half-log increments. If the clinical Cmax for an agent had not been determined, the highest concentration tested was 10 microM.
# Cell Lines. The patient-derived cancer cell (PDC) lines: 156681-154-R-J1-PDC, 283228-195-R-J1-PDC, 287954-098-R-J1-PDC, 292921-168-R-J2-PDC, 349418-098-R-PDC, 425362-245-T-J1-PDC, 556581-035-R-J1-PDC, and BL0293-F563-PDC were received from the NCI Patient-Derived Models Repository (PDMR, https://pdmr.cancer.gov). The established cell lines HS-SY-2 (RRID:CVCL_8719), MPNST, and SYO-1 (RRID:CVCL_7146) were obtained from the Sloan Kettering Institute. The alveolar soft parts sarcoma cell line ASPS-1 (RRID:CVCL_S738) was established at the NCI and grown from internal seed stocks. The following established cell lines were purchased from the American Type Culture Collection (ATCC, Manassas, VA): G-401 (ATCC, cat. CRL-1441, RRID:CVCL_0270), SW982 (ATCC, cat. HTB-93, RRID:CVCL_1734), VA-ES-BJ (ATCC, cat. CRL-2138, RRID:CVCL_1785), NCI-H719 (ATCC, cat. CRL-5837, RRID:CVCL_1582), NCI-H196 (ATCC, cat. CRL-5823, RRID:CVCL_1509), NCI-H841 (ATCC, cat. CRL-5845, RRID:CVCL_1595), NCI-H1618 (ATCC, cat. CRL-5879, RRID:CVCL_1480), NCI-H1876 (ATCC, cat. CRL-5902, RRID:CVCL_1503), DMS 114 (ATCC, cat. CRL-2066; RRID:CVCL_1174), NCI-H211 (ATCC, cat. CRL-5824; RRID:CVCL_1529), and SW 1271 (ATCC, cat. CRL-2177, RRID:CVCL_1716). The small cell lung cancer cell line COR-L88 was purchased from Sigma-Aldrich (cat. 92031917-1VL, RRID:CVCL_1141). The non-small cell lung cancer cell lines NCI-H226 (RRID:CVCL_1544) and NCI-H322M (RRID:CVCL_1557) were established at the NCI and grown from internal seed stocks. Pooled donor human umbilical vein endothelial cells (HUVEC, Lonza, cat. CC-2519) and human mesenchymal stem cells (hMSC, Lonza, cat. PT-2501) were purchased from Lonza (Walkersville, MD).
# Cell Culture. All cells were maintained in an incubator at 37 degrees C and 5% CO2 with 95% humidity. […]
compound,measurement,setting,value
CC(C)n1c(=O)n(C)c2cnc3cc(F)c(-c4ccc(OCCCN5CCCCC5)nc4)cc3c21,"viability, T/C",compound 0.0316 µM,116% and 75.2% and 95.3%
same,"viability, T/C",compound 0.1 µM,92% and 92.2% and 75.8%
same,"viability, T/C",compound 0.316 µM,105% and 84.5% and 144%
same,"viability, T/C",compound 1 µM,93.2% and 88.2% and 84.2%
same,"viability, T/C",compound 3.16 µM,92.5% and 85.4% and 72.3%
same,"viability, T/C",compound 10 µM,63.2% and 56.1% and 54.5%
same,IC50,curve of compound,> 10 µM
CC(C)n1c(=O)n(C)c2cnc3cc(F)c(-c4ccc(OCCCN5CCCCC5)nc4)cc3c21 + COc1cc2c(cc1O)CCNC21CSC2c3c(OC(C)=O)c(C)c4c(c3C(COC1=O)N1C(O)C3Cc5cc(C)c(OC)c(O)c5C(C21)N3C)OCO4,IC50,"curve of first compound, second compound 30 pM",> 10 µM
same,IC50,"curve of first compound, second compound 94.9 pM",> 10 µM
same,IC50,"curve of first compound, second compound 0.0003 µM",> 10 µM
same,IC50,"curve of first compound, second compound 0.000949 µM",< 0.0316 µM
same,IC50,"curve of first compound, second compound 0.003 µM",< 0.0316 µM
same,"viability, T/C","second compound 30 pM, first compound 0.0316 µM",94.6%
same,"viability, T/C","second compound 30 pM, first compound 0.1 µM",76.6%
same,"viability, T/C","second compound 30 pM, first compound 0.316 µM",79.8%
same,"viability, T/C","second compound 30 pM, first compound 1 µM",135%
same,"viability, T/C","second compound 30 pM, first compound 3.16 µM",110%
same,"viability, T/C","second compound 30 pM, first compound 10 µM",72.2%
same,"viability, T/C","second compound 94.9 pM, first compound 0.0316 µM",72.3%
same,"viability, T/C","second compound 94.9 pM, first compound 0.1 µM",68.9%
same,"viability, T/C","second compound 94.9 pM, first compound 0.316 µM",79.3%
same,"viability, T/C","second compound 94.9 pM, first compound 1 µM",64.6%
same,"viability, T/C","second compound 94.9 pM, first compound 3.16 µM",63.5%
same,"viability, T/C","second compound 94.9 pM, first compound 10 µM",59.3%
same,"viability, T/C","second compound 0.0003 µM, first compound 0.0316 µM",55.8%
same,"viability, T/C","second compound 0.0003 µM, first compound 0.1 µM",47.3%
same,"viability, T/C","second compound 0.0003 µM, first compound 0.316 µM",61.1%
same,"viability, T/C","second compound 0.0003 µM, first compound 1 µM",67.5%
same,"viability, T/C","second compound 0.0003 µM, first compound 3.16 µM",52.5%
same,"viability, T/C","second compound 0.0003 µM, first compound 10 µM",40.8%
same,"viability, T/C","second compound 0.000949 µM, first compound 0.0316 µM",47.2%
same,"viability, T/C","second compound 0.000949 µM, first compound 0.1 µM",46.6%
same,"viability, T/C","second compound 0.000949 µM, first compound 0.316 µM",45.5%
same,"viability, T/C","second compound 0.000949 µM, first compound 1 µM",48.1%
same,"viability, T/C","second compound 0.000949 µM, first compound 3.16 µM",45.2%
same,"viability, T/C","second compound 0.000949 µM, first compound 10 µM",37.1%
same,"viability, T/C","second compound 0.003 µM, first compound 0.0316 µM",13.8%
same,"viability, T/C","second compound 0.003 µM, first compound 0.1 µM",13.6%
same,"viability, T/C","second compound 0.003 µM, first compound 0.316 µM",11.6%
same,"viability, T/C","second compound 0.003 µM, first compound 1 µM",10.3%
same,"viability, T/C","second compound 0.003 µM, first compound 3.16 µM",10%
same,"viability, T/C","second compound 0.003 µM, first compound 10 µM",6.09%
Cn1ncnc1[C@H]1c2n[nH]c(=O)c3cc(F)cc(c23)N[C@@H]1c1ccc(F)cc1 + Cn1nnc2c(C(N)=O)ncn2c1=O,IC50,"curve of first compound, second compound 1 µM",2.76 µM
same,IC50,"curve of first compound, second compound 3.16 µM",> 3 µM
same,IC50,"curve of first compound, second compound 10 µM",> 3 µM
same,IC50,"curve of first compound, second compound 31.6 µM",0.505 µM
same,IC50,"curve of first compound, second compound 100 µM",0.027 µM
same,"viability, T/C","second compound 1 µM, first compound 0.00949 µM",93.1%
same,"viability, T/C","second compound 1 µM, first compound 0.03 µM",77.1%
same,"viability, T/C","second compound 1 µM, first compound 0.0949 µM",70.3%
same,"viability, T/C","second compound 1 µM, first compound 0.3 µM",58.9%
same,"viability, T/C","second compound 1 µM, first compound 0.949 µM",52%
same,"viability, T/C","second compound 1 µM, first compound 3 µM",50.8%
same,"viability, T/C","second compound 3.16 µM, first compound 0.00949 µM",77.7%
same,"viability, T/C","second compound 3.16 µM, first compound 0.03 µM",74%
same,"viability, T/C","second compound 3.16 µM, first compound 0.0949 µM",74.2%
same,"viability, T/C","second compound 3.16 µM, first compound 0.3 µM",55.2%
same,"viability, T/C","second compound 3.16 µM, first compound 0.949 µM",53.7%
same,"viability, T/C","second compound 3.16 µM, first compound 3 µM",52.7%
same,"viability, T/C","second compound 10 µM, first compound 0.00949 µM",79%
same,"viability, T/C","second compound 10 µM, first compound 0.03 µM",71.6%
same,"viability, T/C","second compound 10 µM, first compound 0.0949 µM",63.9%
same,"viability, T/C","second compound 10 µM, first compound 0.3 µM",55.8%
same,"viability, T/C","second compound 10 µM, first compound 0.949 µM",51.7%
same,"viability, T/C","second compound 10 µM, first compound 3 µM",51.7%
same,"viability, T/C","second compound 31.6 µM, first compound 0.00949 µM",61.7%
same,"viability, T/C","second compound 31.6 µM, first compound 0.03 µM",56%
same,"viability, T/C","second compound 31.6 µM, first compound 0.0949 µM",58.1%
same,"viability, T/C","second compound 31.6 µM, first compound 0.3 µM",48.9%
same,"viability, T/C","second compound 31.6 µM, first compound 0.949 µM",48.2%
same,"viability, T/C","second compound 31.6 µM, first compound 3 µM",46.5%
same,"viability, T/C","second compound 100 µM, first compound 0.00949 µM",52.5%
same,"viability, T/C","second compound 100 µM, first compound 0.03 µM",50%
same,"viability, T/C","second compound 100 µM, first compound 0.0949 µM",49%
same,"viability, T/C","second compound 100 µM, first compound 0.3 µM",46.2%
same,"viability, T/C","second compound 100 µM, first compound 0.949 µM",47.5%
same,"viability, T/C","second compound 100 µM, first compound 3 µM",48.3%
